system: P1 receptor; assay: P1 receptor binding studies (A1, A2A, A2B and A3), overall statement; design: species or system human; settings: all four subtypes
Description: A1 Receptor: Membrane aliquots containing 5 µg (CHOhA1R) protein were incubated in a total volume of 100 µL assay buffer (50 mM Tris-HCl, pH 7.4) at 25 °C for 1 h. […] Nonspecific binding was determined in the presence of 100 µM N^6-cyclopentyladenosine (CPA). Incubations were terminated by rapid vacuum filtration to separate the bound and free radioligand through prewetted 96-well GF/B filter plates using a PerkinElmer Filtermate-harvester (Perkin Elmer, Groningen, the Netherlands). Filters were subsequently washed 12 times with ice-cold 50 mM Tris-HCl, pH 7.4.
Nonspecific binding was determined in the presence of 100 µM adenosine-5-N-ethyluronamide (NECA). Incubations were terminated by rapid vacuum filtration to separate the bound and free radioligand through prewetted 96-well GF/B filter plates using a PerkinElmer Filtermate-harvester (Perkin Elmer, Groningen, The Netherlands). Filters were subsequently washed 12 times with ice-cold 50 mM Tris-HCl, pH 7.4.
A2B Receptor: Membrane aliquots containing 30 µg (CHO-spap-hA2BR) total protein were incubated in a total volume of 100 µL assay buffer (0.1% CHAPS in 50 mM TrisHCl, pH 7.4) at 25 °C for 2 h. […] Nonspecific binding was determined in the presence of 10 µM ZM241385. Incubations were terminated by rapid vacuum filtration to separate the bound and free radioligand through prewetted 96-well GF/B filter plates using a PerkinElmer Filtermate-harvester (Perkin Elmer, Groningen, the Netherlands). Filters were subsequently washed 12 times with ice-cold 0.1% BSA in 50 mM Tris-HCl, pH 7.4.
A3 Receptor: Membrane aliquots containing 15 µg (CHOhA3R) total protein were incubated in a total volume of 100 µL assay buffer (50 mM Tris-HCl, pH 8.0, supplemented with 10 mM MgCl2, 1 mM EDTA and 0.01% (w/v) CHAPS) at 25 °C for 2 h. […] Nonspecific binding was determined in the presence of 100 µM NECA. […]
All experimental data were analyzed using the non-linear regression curve fitting program GraphPad Prism 7.0 (GraphPad Software Inc., San Diego, CA, USA). […]

| P1 receptor affinity | SMILES |
| --- | --- |
| no P1 receptor affinity | Nc1cc(Cl)c2ncn([C@H]3[C@H](O)[C@H](O)[C@]4(CO)C[C@H]34)c2n1 [Compound 11, (1R,2R,3S,4R,5S)-4-(5-Amino-7-chloro-3H-imidazo[4,5-b]pyridin-3-yl)-1-(hydroxymethyl)bicyclo[3.1.0]hexane-2,3-diol] |
| no P1 receptor affinity | OC[C@@]12C[C@@H]1[C@@H](n1cnc3c(Cl)cc(Cl)nc31)[C@H](O)[C@@H]2O [Compound 12, (1R,2R,3S,4R,5S)-4-(5,7-Dichloro-3H-imidazo[4,5-b]pyridin-3-yl)-1-(hydroxymethyl)bicyclo[3.1.0]hexane-2,3-diol] |
| loss of P1 receptor affinity | CSc1cc(N)c2ncn([C@H]3[C@H](O)[C@H](O)[C@]4(CO)C[C@H]34)c2n1 [Compound 17, (1R,2R,3S,4R,5S)-4-(7-Amino-5-methylthio-3H-imidazo[4,5-b]pyridin-3-yl)-1-(hydroxymethyl)bicyclo[3.1.0]hexane-2,3-diol] |
